Structures can show the parent of a compound that is named as a salt.
Experiments:
[1] = Solid state stability (25 °C/60% RH and 40 °C/75% RH, one week; XRPD and HPLC); type: physicochemical; settings: for solid state stability: open condition, one week, 25 °C/60% RH and 40 °C/75% RH
Description: The purity test, dynamic solubility test, and stability test in the assay were measured with an Agilent 1260 high-performance liquid chromatograph, and the salt formation molar ratio of ions was tested by ion chromatography, and the analytical conditions are shown in Table 5 and Table 6.

[2] = Dynamic solubility in water, SGF, FaSSIF and FeSSIF; type: physicochemical; settings: for solubility in water, SGF, FaSSIF and FeSSIF: 10 mg/mL feed, 1, 4, 24 hours; for change in crystal form after solubility test: XRPD after solubility test
Description: Purified water was added to complete dissolution.

[3] = Hygroscopicity by dynamic vapor sorption (DVS); type: physicochemical; settings: 25 °C
Description: The dynamic vapor sorption (DVS) curve was collected on DVS IntrInsic from SMS (surface measurement systems). The relative humidity at 25 °C was corrected using the deliquescence points of LiCl, Mg(NO3)2, and KCl.
Starting from 0% RH or room humidity, the test collected the mass change percentage of the sample as the humidity changed (0% RH to 95% RH) under constant temperature conditions of 25 °C The results of the DVS test and the XRPD results of the samples before and after the DVS test are shown in FIG. 113 to FIG. 122.

[4] = Influence of vacuum drying on crystal form A (XRPD, HPLC purity); type: physicochemical; settings: vacuum drying 60 °C/80 °C, 4 hours
Description: In order to evaluate the influence of the drying conditions on the crystal form A of the compound of formula I, the changes of the sample before and after vacuum drying of the crystal form A of the compound of formula I under the condition of 60 °C/80 °C for 4 hours were respectively investigated. The XRPD, ^1H NMR, and HPLC purity of the dried sample were tested.

[5] = Variable temperature XRPD (VT-XRPD) of crystal forms; type: physicochemical; settings: for crystal form on N2 purging: purged with N2 for 20 minutes; for crystal form on heating to 150 °C: N2, heated to 150 °C and cooled; for crystal form on exposure to air: exposed to air after N2 purging/heating
Text: The XRPD pattern was collected on an X-ray powder diffraction analyzer produced by PANalytacal, and the scanning parameters are shown in Table 2.
The crystal form A of the compound of formula I of Example 2 was identified using variable temperature XRPD (VT-XRPD).

[6] = Human liver microsome stability; type: in vitro ADME; settings: human liver microsomes, 30 min, 37 °C, NADPH; read-out: Remaining percentage of compound after incubation for 30 min
Description: The human liver microsome stability test was performed by incubating the compound and human liver microsomes in vitro. First, the compound to be tested was prepared into a 10 mM stock solution in DMSO solvent, and then the compound was diluted to 0.5 mM with acetonitrile. Human liver microsomes (Corning) were diluted with PBS into a microsome/buffer solution, and the solution was used to dilute 0.5 mM compound into a working solution, in which the concentration of the compound was 1.5 μM, and the concentration of human liver microsomes was 0.75 mg/mL. A deep-well plate was taken, 30 μL of the working solution was added per well, and then 15 μL of pre-heated 6 mM NADPH solution was added thereto to initiate a reaction, and the reaction was incubated at 37 °C At 0, 5, 15, 30, and 45 min of the incubation, 135 μL of acetonitrile was added to the corresponding wells to terminate the reaction. After the reaction was terminated with acetonitrile at the last time point of 45 min, the deep-well plate was vortexed for 10 min (600 rpm/min), and then centrifuged for 15 min. After centrifugation, the supernatant was collected, and added with purified water in a ratio of 1:1 to perform LC-MS/MS detection. A ratio of a peak area of compound to a peak area of internal standard at each time point was obtained, and the peak area ratios of the compound at 5, 15, 30, and 45 min were compared with the peak area ratio at 0 min to calculate the remaining percentage of the compound at each time point. T1/2 was calculated by using GraphPad 5 software.

Compound | HPLC results Purity (solid state stability) ([1]; 25 °C/60% RH/open, 1 week) [area %] | HPLC results Purity (solid state stability) ([1]; 40 °C/75% RH/open, 1 week) [area %] | HPLC results Purity (solid state stability) ([1]; Onset) [area %] | pH of filtrate ([2]; FaSSIF, 1 hour, 37 °C) | pH of filtrate ([2]; FaSSIF, 4 hours, 37 °C) | pH of filtrate ([2]; FaSSIF, 24 hours, 37 °C) | pH of filtrate ([2]; FeSSIF, 1 hour, 37 °C) | pH of filtrate ([2]; FeSSIF, 4 hours, 37 °C) | pH of filtrate ([2]; FeSSIF, 24 hours, 37 °C) | pH of filtrate ([2]; H2O, 1 hour, 37 °C) | pH of filtrate ([2]; H2O, 4 hours, 37 °C) | pH of filtrate ([2]; H2O, 24 hours, 37 °C) | pH of filtrate ([2]; SGF, 1 hour, 37 °C) | pH of filtrate ([2]; SGF, 4 hours, 37 °C) | pH of filtrate ([2]; SGF, 24 hours, 37 °C) | also measured
Cc1nc(N[C@H](C)c2cccc(S(F)(F)(F)(F)F)c2)c2cn(C3(CF)CC3)c(=O)cc2n1 [Crystal form A fumarate salt] | 98.67 | 98.70 | 98.67 | – | – | – | – | – | – | – | – | – | – | – | – | –
Cc1nc(N[C@H](C)c2cccc(S(F)(F)(F)(F)F)c2)c2cn(C3(CF)CC3)c(=O)cc2n1 [Crystal form B citrate salt] | 99.00 | 99.01 | 98.92 | – | – | – | – | – | – | – | – | – | – | – | – | –
Cc1nc(N[C@H](C)c2cccc(S(F)(F)(F)(F)F)c2)c2cn(C3(CF)CC3)c(=O)cc2n1 [Crystal form B of citrate salt] | – | – | – | 4.5 | 3.9 | 3.6 | 4.8 | 4.6 | 4.5 | 3.5 | 3.5 | 3.3 | 2.5 | 2.6 | 2.4 | –
Cc1nc(N[C@H](C)c2cccc(S(F)(F)(F)(F)F)c2)c2cn(C3(CF)CC3)c(=O)cc2n1 [Crystal form A of compound of formula I] | – | – | – | 6.3 | 6.3 | 6.4 | 5.1 | 5.1 | 5.1 | 5.4 | 6.0 | 5.8 | 3.2 | 3.3 | 3.2 | S: solubility ([2]; FeSSIF, 1 hour, 37 °C, 60 min): 2720 µg/mL
Cc1nc(N[C@H](C)c2cccc(S(F)(F)(F)(F)F)c2)c2cn(C3(CF)CC3)c(=O)cc2n1 [Crystal form A of ethanesulfonate salt] | – | – | – | 4.5 | 4.2 | 3.7 | 4.8 | 4.8 | 4.7 | 2.9 | 3.1 | 2.8 | 1.6 | 1.5 | 1.5 | S: solubility ([2]; FaSSIF, 4 hours, 37 °C, 240 min): 1610 µg/mL; S: solubility ([2]; FeSSIF, 4 hours, 37 °C, 240 min): 3620 µg/mL; S: solubility ([2]; H2O, 1 hour, 37 °C, 60 min): 10060 µg/mL; S: solubility ([2]; H2O, 4 hours, 37 °C, 240 min): 9810 µg/mL; S: solubility ([2]; H2O, 24 hours, 37 °C, 1440 min): 10080 µg/mL; S: solubility ([2]; SGF, 4 hours, 37 °C, 240 min): 10130 µg/mL; S: solubility ([2]; SGF, 24 hours, 37 °C, 1440 min): 10110 µg/mL
Cc1nc(N[C@H](C)c2cccc(S(F)(F)(F)(F)F)c2)c2cn(C3(CF)CC3)c(=O)cc2n1 [Crystal form A compound formula I] | 97.13 | 97.14 | 97.06 | – | – | – | – | – | – | – | – | – | – | – | – | –
Cc1nc(N[C@H](C)c2cccc(S(F)(F)(F)(F)F)c2)c2cn(C3(CF)CC3)c(=O)cc2n1 [crystal form A of the compound of formula I] | – | – | – | – | – | – | – | – | – | – | – | – | – | – | – | solubility in water, SGF, FaSSIF and FeSSIF ([2]; 37 °C): high solubility; change in crystal form after solubility test [2]: no change in crystal form is observed; moisture behaviour higher than 10% RH [3]: absorb more moisture and gain more weight with the increase of humidity; moisture behaviour lower than 10% RH [3]: rapidly dehydrate; solid state stability [1]: good stability; change in purity before and after drying (HPLC) [4]: no significant change in purity was observed; crystal form after vacuum drying ([4]; exposure to 19 °C/27% RH 10-15 min): still the crystal form A of the compound of formula I; crystal form on N2 purging [5]: transformed into a new crystal form B
Cc1nc(N[C@H](C)c2cccc(S(F)(F)(F)(F)F)c2)c2cn(C3(CF)CC3)c(=O)cc2n1 [Crystal form A of fumarate salt] | – | – | – | 4.8 | 4.6 | 4.3 | 4.6 | 4.8 | 4.7 | 4.2 | 4.2 | 4.1 | 1.8 | 2.0 | 1.7 | solubility at 1 h ([2]; fessif, 1 hour, 37 °C, read-out: S: solubility): 3510 µg/mL; solubility at 4 h ([2]; fessif, 4 hours, 37 °C, read-out: S: solubility): 2390 µg/mL; solubility at 24 h ([2]; fessif, 24 hours, 37 °C, read-out: S: solubility): 2180 µg/mL
Cc1nc(N[C@H](C)c2cccc(S(F)(F)(F)(F)F)c2)c2cn(C3(CF)CC3)c(=O)cc2n1 [crystal form A of the methanesulfonate salt of the compound ] | – | – | – | – | – | – | – | – | – | – | – | – | – | – | – | solubility in water, SGF, FaSSIF and FeSSIF ([2]; 37 °C): high solubility; hygroscopicity ([3]; 0% RH to 95% RH): slightly hygroscopic; solid state stability [1]: good stability; crystal form on heating to 150 °C [5]: no change in the crystal form was observed
Cc1nc(N[C@H](C)c2cccc(S(F)(F)(F)(F)F)c2)c2cn(C3(CF)CC3)c(=O)cc2n1 [crystal form B of the compound of formula I] | – | – | – | – | – | – | – | – | – | – | – | – | – | – | – | crystal form on exposure to air [5]: transcrystallized back to the crystal form A; crystal form on heating to 100 °C and cooling to 30 °C ([5]; under N2, 100 °C, cooled to 30 °C): No crystal change was observed
Cc1nc(N[C@H](C)c2cccc(S(F)(F)(F)(F)F)c2)c2cn(C3(CF)CC3)c(=O)cc2n1 [Crystal form A ethanesulfonate salt] | 99.15 | 99.29 | 99.10 | – | – | – | – | – | – | – | – | – | – | – | – | –
Cc1nc(N[C@H](C)c2cccc(S(F)(F)(F)(F)F)c2)c2cn(C3(CF)CC3)c(=O)cc2n1 [Crystal form A methanesulfonate salt] | 99.21 | 99.26 | 99.18 | – | – | – | – | – | – | – | – | – | – | – | – | –
Cc1nc(N[C@H](C)c2cccc(C(F)(F)F)c2C)c2cn(C3(CF)CC3)c(=O)cc2n1 [Control compound 1, reference compound] | – | – | – | – | – | – | – | – | – | – | – | – | – | – | – | remaining at 0.5 h [6]: 70.2%
Cc1nc(N[C@H](C)c2cccc(S(F)(F)(F)(F)F)c2)c2cn(C3(CF)CC3)c(=O)cc2n1 [Crystal form A of methanesulfonate salt] | – | – | – | 4.3 | 4.4 | 4.0 | 4.8 | 4.8 | 4.8 | 3.5 | 3.5 | 3.1 | 1.7 | 1.8 | 1.6 | S: solubility ([2]; FeSSIF, 1 hour, 37 °C, 60 min): 4040 µg/mL
Cc1nc(N[C@H](C)c2cccc(S(F)(F)(F)(F)F)c2)c2cn(C3(CF)CC3)c(=O)cc2n1 [crystal form A of the fumarate salt of the compound of formu] | – | – | – | – | – | – | – | – | – | – | – | – | – | – | – | solubility in water, SGF, FaSSIF and FeSSIF ([2]; 37 °C): high solubility; change in crystal form after solubility test [2]: no change in crystal form is observed; moisture behaviour higher than 10% RH [3]: absorb more moisture and gain more weight with the increase of humidity; moisture behaviour lower than 10% RH [3]: rapidly dehydrate; solid state stability [1]: good stability; crystal form on heating to 150 °C [5]: No change in the crystal form was observed; crystal form on exposure to air [5]: transcrystallized back to the crystal form A of the fumarate salt; crystal form on N2 purging [5]: a peak shift was observed

From patent US20260337190A1, “CRYSTAL FORM OF PYRIDINOPYRIMIDINONE COMPOUND, ACID SALT THEREOF, CRYSTAL FORM OF ACID SALT THEREOF, AND USE” (Wuhan Humanwell Innovative Drug Research and Development …, priority 2022, published 2026)
